Measured values published in paper PMC11477134 (International Journal of Molecular Sciences, 2024).
Where two headings read alike, the source gives them in different places.

What was measured:
AChE = AChE (Homo sapiens, UniProt P22303); conditions: Dixon and Lineweaver–Burk plots
Method: The AChE inhibitory activity was measured spectrophotometrically using the modified Ellman method. First, AChE (0.8 U/mL) was added to a mixture containing sodium phosphate buffer (0.1 M; pH 8.0), DTNB (5 mM), and a test sample, followed by incubation at 37 °C for 15 min in 96-well microplates. Next, ACTI (500 µM; substrate for AChE) was added to the mixture to activate the reaction.
(§1) Dixon plots were obtained in the presence of different concentrations of substrates for AD-related target enzymes. Michaelis–Menten and Lineweaver–Burk plots were constructed in the absence or presence of various concentrations of honokiol.

hBACE1 = target: T1, hBACE1 (Homo sapiens, UniProt P56817); experiment: hBACE1 inhibitory activity (FRET assay) and enzyme kinetics; type: biochemical
T1 construct: purchased Invitrogen (Pan Vera, Madison, WI, USA)
T1 sequence (P56817 46-501): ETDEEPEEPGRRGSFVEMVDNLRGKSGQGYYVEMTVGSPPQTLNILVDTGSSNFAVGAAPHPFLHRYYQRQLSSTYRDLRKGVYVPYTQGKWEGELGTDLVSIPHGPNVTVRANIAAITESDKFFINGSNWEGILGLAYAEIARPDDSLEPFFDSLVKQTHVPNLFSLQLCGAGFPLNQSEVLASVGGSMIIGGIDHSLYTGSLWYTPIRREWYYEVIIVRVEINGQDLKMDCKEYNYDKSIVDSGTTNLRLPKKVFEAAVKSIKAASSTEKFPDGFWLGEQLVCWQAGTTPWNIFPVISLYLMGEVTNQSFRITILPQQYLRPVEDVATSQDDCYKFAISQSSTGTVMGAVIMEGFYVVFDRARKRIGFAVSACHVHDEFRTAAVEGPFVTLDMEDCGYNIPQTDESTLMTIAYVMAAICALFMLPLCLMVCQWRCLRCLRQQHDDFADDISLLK
Method: The FRET-based assay was used to evaluate the anti-hBACE1 activity and was performed according to the manufacturer’s instructions. […] The percentage BACE1 inhibitory activity was calculated using the following formula:Inhibition (%) = [1 − (S − S0)/(C − C0)] × 100(1) where C is the control fluorescence without the sample after 60 min of incubation, C0 is the control fluorescence at time 0, S is the test sample fluorescence after 60 min of incubation, and S0 is the test sample fluorescence at time 0.
as §1

[1] = parameters: method as in PMID 29925102; conditions: use of honokiol or herbal formulations containing it; cited from earlier work
hGSK-3β = target: T2, hGSK-3β (Homo sapiens, UniProt P49841); experiment: hGSK-3β activity (ADP-Glo/Kinase-Glo assay) and enzyme kinetics; type: biochemical
T2 construct: purchased Promega (Madison, WI, USA)
T2 sequence (P49841 whole entry): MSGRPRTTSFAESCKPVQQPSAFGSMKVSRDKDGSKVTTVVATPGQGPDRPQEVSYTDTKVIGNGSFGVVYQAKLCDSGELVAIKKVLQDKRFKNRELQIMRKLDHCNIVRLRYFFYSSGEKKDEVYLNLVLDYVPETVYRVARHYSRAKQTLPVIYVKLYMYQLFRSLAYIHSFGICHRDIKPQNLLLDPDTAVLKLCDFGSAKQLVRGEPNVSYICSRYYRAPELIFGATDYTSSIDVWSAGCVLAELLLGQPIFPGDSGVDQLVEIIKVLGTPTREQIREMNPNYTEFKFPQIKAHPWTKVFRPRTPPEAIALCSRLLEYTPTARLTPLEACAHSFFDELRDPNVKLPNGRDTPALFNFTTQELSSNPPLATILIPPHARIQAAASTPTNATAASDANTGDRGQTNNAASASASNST
Method: Inhibition of hGSK-3β activity was evaluated using the Kinase-Glo assay. To initiate the reaction, test compound and hGSK-3β (20 ng) were added to each well of a 384-well black plate, followed by the addition of 20 μL of assay buffer containing GSM (hGSK-3β substrate peptide, 25 μM) and ATP (final concentration, 1 μM). […] The reaction mixture was then incubated at 37 °C for 30 min, followed by the addition of the ADP-GloTM reagent (20 μL) to terminate the enzymatic reaction and deplete the remaining ATP. The kinase detection reagent was added to the well plate and glow-type luminescence was recorded using a Synergy H1 microplate reader.
(§2) Dixon plots were obtained in the presence of different concentrations of substrates for AD-related target enzymes. Michaelis–Menten and Lineweaver–Burk plots were constructed in the absence or presence of various concentrations of honokiol. The Enzyme Kinetic™ module of SigmaPlot™ version 12.3 (Systat Software, Inc., San Jose, CA, USA) was used to calculate kinetic parameters, such as the Ki, Vmax, and Km.

hQC = target: T3, hQC (Homo sapiens, UniProt Q16769); experiment: hQC inhibitory activity (fluorometric assay) and enzyme kinetics; type: biochemical
T3 construct: purchased R&D Systems (Minneapolis, MN, USA)
T3 sequence (Q16769 29-361): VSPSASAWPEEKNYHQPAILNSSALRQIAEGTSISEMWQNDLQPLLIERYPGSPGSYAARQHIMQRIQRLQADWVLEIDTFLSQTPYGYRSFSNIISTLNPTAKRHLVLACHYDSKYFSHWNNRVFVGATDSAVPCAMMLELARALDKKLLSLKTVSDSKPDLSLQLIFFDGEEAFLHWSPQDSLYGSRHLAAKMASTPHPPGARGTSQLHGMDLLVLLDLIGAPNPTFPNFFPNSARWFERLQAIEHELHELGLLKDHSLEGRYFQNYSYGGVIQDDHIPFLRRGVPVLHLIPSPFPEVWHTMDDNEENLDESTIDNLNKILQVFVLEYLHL
Method: The inhibitory activity of hQC was evaluated using H-Gln-AMC hydrobromide (400 μM) as the substrate in a fluorometric assay. The buffer consisted of 25 mM HEPES (pH 7.0; adjusted with HCl). The hQC (10 μg/mL) and its auxiliary enzyme pGAPase (50 units) were pre-diluted 1:250 in HEPES. A typical reaction mixture consisted of the substrate, test compounds, and pGAPase. After incubation in black 96-well plates for 10 min at 37 °C, the reaction was initiated by adding hQC solution. The fluorescence intensity of the samples was measured at excitation/emission wavelengths of 380/460 nm, which correlated with the amount of AMC, the end product of the enzymatic process.
as §2

Aβ1-42 = Aβ1-42 (Homo sapiens, UniProt P05067); experiment: Anti-Aβ1-42 aggregation (preliminary study); type: biochemical; conditions: compared with honokiol
Aβ1-42, sequence (P05067 672-713 limits assumed): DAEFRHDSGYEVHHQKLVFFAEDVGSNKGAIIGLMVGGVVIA

[2] = Dixon and Lineweaver–Burk plots
[3] = mean ± S.D. of triplicate experiments, read-out: IC50 hGSK-3β
[4] = mean ± S.D. of triplicate experiments, read-out: IC50 hQC

AChE, sequence (P22303 32-614): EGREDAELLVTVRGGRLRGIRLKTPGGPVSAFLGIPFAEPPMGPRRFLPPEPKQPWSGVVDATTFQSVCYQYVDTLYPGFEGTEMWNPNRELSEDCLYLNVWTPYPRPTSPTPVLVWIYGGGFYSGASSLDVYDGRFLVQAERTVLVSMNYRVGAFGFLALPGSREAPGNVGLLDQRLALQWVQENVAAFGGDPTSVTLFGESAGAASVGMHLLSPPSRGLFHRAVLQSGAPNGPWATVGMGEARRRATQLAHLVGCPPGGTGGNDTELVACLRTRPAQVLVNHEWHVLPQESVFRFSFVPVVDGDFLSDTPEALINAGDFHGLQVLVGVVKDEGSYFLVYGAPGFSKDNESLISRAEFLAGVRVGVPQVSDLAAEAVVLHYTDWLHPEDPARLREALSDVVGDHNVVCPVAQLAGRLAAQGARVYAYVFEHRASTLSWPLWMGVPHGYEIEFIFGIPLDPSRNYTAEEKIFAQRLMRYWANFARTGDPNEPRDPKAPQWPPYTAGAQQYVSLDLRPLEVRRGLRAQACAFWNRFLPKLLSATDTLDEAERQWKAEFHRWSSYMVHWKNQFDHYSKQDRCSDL

For `C=CCc1ccc(O)c(-c2ccc(O)c(CC=C)c2)c1` [Honokiol (39), 3,5′-diallyl-4,2′-dihydroxybiphenyl], the “Inhibition Mode AChE” value (AChE) was “Non-competitive”, the IC50 (hBACE1) was 20.6 ± 0.8 µM and the Ki (hBACE1) was 27.3 µM. For the same compound, the “Inhibition Mode hBACE1” value (hBACE1; [2]) was “Non-competitive”, the “side effects in humans” value [1] was “no side effects have been reported in humans” and the IC50 (hGSK-3β) was 6.7 ± 0.03 µM. The Ki (hGSK-3β) was 9.8 µM, the “Inhibition Mode hGSK-3β” value (hGSK-3β; [2]) was “Non-competitive” and the IC50 (hQC) was 90.7 ± 1.07 µM. The Ki (hQC) was 49.4 µM and the “Inhibition Mode hQC” value (hQC; [2]) was “Competitive”.
For `C=CCc1ccc(O)c(-c2cc(CC=C)ccc2O)c1` [Magnolol (51), 5,5′-diallyl-2,2′-dihydroxybiphenyl], the IC50 (hBACE1; mean ± S.D. of triplicate experiments, read-out: IC50 hBACE1) was > 100 µM, the anti-Aβ1-42 aggregation effects (Aβ1-42) was “lower anti-Aβ1-42 aggregation effects than that of honokiol” and the IC50 (hGSK-3β; [3]) was > 100 µM. For the same compound, the IC50 (hQC; [4]) was > 100 µM.
For `Oc1ccc(/C=C/c2cc(O)cc(O)c2)cc1` [resveratrol, reference compound], the IC50 (hQC; [4]) was 30.9 µM.
In the case of `C[C@@H]1O[C@@H](OC[C@H]2O[C@@H](Oc3c(-c4ccc(O)c(O)c4)oc4cc(O)cc(O)c4c3=O)[C@H](O)[C@@H](O)[C@@H]2O)[C@H](O)[C@H](O)[C@H]1O` [rutin, reference compound], the IC50 (hGSK-3β; [3]) is reported as 10.8 µM.
